Data reported in patent US9833431B2, “Pharmaceutical combinations for the treatment of cancer” (Pitney Pharmaceuticals Pty Limited, priority 2013, dated 2017).
“Also recorded” adds a separate entry of the source. Read-outs that look alike come from different tables or passages of the source.

What was measured:
HOSE [1] = assay: SRB cytotoxicity assay, HOSE non-malignant control cells; settings: for Interaction of the drug with MPL (synergy), in words: HOSE non-malignant control cells, concentrations as stated at the place or in the figure
Experimental: (§2) All cell lines described herein were purchased from ATCC. Cells were seeded in 96-well plates (2,000-3,000 cells/well) and culture overnight prior to treatment with MPL. Control cultures were treated with ethanol alone.
(§3) Cells were seeded in 96-well plates (2,000-3,000 cells/well), treated with the indicated compound(s) for 72 h, fixed, washed and stained with 100 μl of 0.4% (w/v) SRB dissolved in 1% acetic acid. Unbound dye was removed by five washes with 1% acetic acid before air-drying.
(§4) Corresponding cytotoxicity of the major metabolite MPL-SO2 has also been tested where indicated. […] HUVEC, human fetal astrocytes and HOSE cells are non-transformed, non-immortalized and non-malignant, freshly isolated/low passage number cell populations, from apparently healthy non-diseased tissue. These healthy cell populations were included in the experimental series as controls for non-specific toxicity. Both MPL and MPL-SO2 were suspended in ethanol and applied in final concentrations of 0.5 to 1% ethanol in the respective culture media.
(§5) In order to evaluate the effect of MPL on the in vitro efficacy of an established drug was evaluated using cell viability and cell proliferation assays. Cell viability was conducted according to standard Trypan Blue method. Cell proliferation was assessed using the sulforhodamine B (SRB) assay. For viability experiments, cells were seeded in 6 well plates, whereas for proliferation assays cells were grown in 96 well plates. Following over-night attachment, cells were treated with the intended drug at various concentrations either alone or in combination with monepantel (MPL) for 72 h. Parallel to this, cells treated with MPL alone were also deployed for comparative purposes. Following incubation for 72 h in a standard cell culture incubator, effect of mono and combined drug treatments on cell viability and/or cell proliferation was assessed through using Trypan Blue or SRB assays respectively.
(§6) For viability assay, at the end of treatment period, cells were washed with PBS, trypsinized and counted using Trypan blue and hemocytometer. For the SRB assay cells were fixed, washed and stained with 100 μl of 0.4% (w/v) SRB dissolved in 1% acetic acid. Unbound dye was removed by five washes with 1% acetic acid before air drying. […] Monepantel (gift by Novartis, Basel, Switzerland) was dissolved in 100% ethanol and then diluted with the cell culture media. Other agents employed in the study were purchased either from Sigma Australia or Sapphire Australia, prepared and preserved for cell culture use according to supplier instructions.
(§7) MPL (5 μM) and combination drugs were applied for 72 h unless indicated.

OVCAR-3 = assay: SRB cytotoxicity / proliferation assay, OVCAR-3 cells; settings: for Interaction of the drug with MPL (synergy), in words: OVCAR-3 cells, concentrations as stated in the figure
Experimental: (§8) Cells were seeded in 96-well plates (2,000-3,000 cells/well) and culture overnight prior to treatment with MPL. Control cultures were treated with ethanol alone.
(§9) Cytotoxicity was assessed using the sulforhodamine B (SRB) assay and reported as half maximal inhibitory concentration (IC50; Table 3). Cells were seeded in 96-well plates (2,000-3,000 cells/well), treated with the indicated compound(s) for 72 h, fixed, washed and stained with 100 μl of 0.4% (w/v) SRB dissolved in 1% acetic acid. Unbound dye was removed by five washes with 1% acetic acid before air-drying.
as §5
(§10) For viability assay, at the end of treatment period, cells were washed with PBS, trypsinized and counted using Trypan blue and hemocytometer. For the SRB assay cells were fixed, washed and stained with 100 μl of 0.4% (w/v) SRB dissolved in 1% acetic acid. Unbound dye was removed by five washes with 1% acetic acid before air drying. […] Monepantel (gift by Novartis, Basel, Switzerland) was dissolved in 100% ethanol and then diluted with the cell culture media.
as §7

AsPC1 = assay: SRB cytotoxicity assay, AsPC1 cells; format: cell-based, human; settings: AsPC-1 cells; 72 h; FIG. 23
Experimental: (§1) All cell lines described herein were purchased from ATCC. […] Control cultures were treated with ethanol alone.

PET = assay: SRB cytotoxicity assay, PET cells; format: cell-based, human; settings: PET mesothelioma cells; 72 h; FIG. 25
Experimental: as §1

LN-18 = assay: SRB cytotoxicity assay, LN-18 cells; format: cell-based, human; settings: 72 h; for Interaction of the drug with MPL (synergy), in words: LN18 cells, FIG. 21
Experimental: as §1

A2780 = assay: SRB cytotoxicity / proliferation assay, A2780 cells; settings: for Interaction of the drug with MPL (synergy), in words: 72 h
Experimental: as §8, §3
Cell viability was conducted according to standard Trypan Blue method. Cell proliferation was assessed using the sulforhodamine B (SRB) assay. For viability experiments, cells were seeded in 6 well plates, whereas for proliferation assays cells were grown in 96 well plates. Following over-night attachment, cells were treated with the intended drug at various concentrations either alone or in combination with monepantel (MPL) for 72 h. Parallel to this, cells treated with MPL alone were also deployed for comparative purposes. Following incubation for 72 h in a standard cell culture incubator, effect of mono and combined drug treatments on cell viability and/or cell proliferation was assessed through using Trypan Blue or SRB assays respectively.
as §10

Hep3B = assay: SRB cytotoxicity assay, Hep3B cells; format: cell-based, human; settings: Hep3B cells; MPL at 5 μM; 48 h; FIG. 24
Experimental: as §1

YOU = assay: SRB cytotoxicity assay, YOU cells; format: cell-based, human; settings: YOU mesothelioma cells; 72 h; FIG. 25
Experimental: as §1

U87 = assay: SRB cytotoxicity assay, U87 cells; format: cell-based, human; settings: U87 cells; 72 h; FIG. 21
Experimental: as §1

REN = assay: SRB cytotoxicity assay, REN cells; format: cell-based, human; settings: REN mesothelioma cells; 72 h; FIG. 25
Experimental: as §1

OVCAR-3 and A2780 = format: cell-based, human; settings: Example 2; cell line not given
C170 = assay: SRB cytotoxicity assay, C170 cells; format: cell-based; settings: C170 cells; MPL 5 μM; 5-FU 20 μM, gemcitabine 0.5 μM, oxaliplatin 1 μM; 72 h; FIG. 27
Experimental: as §1

SKOV-3 = assay: SRB cytotoxicity assay, SKOV-3 cells; format: cell-based; settings: Homo sapiens, SK-OV-3, SKOV-3, malignant, ovarian, 72 h
Experimental: as §1

HT-29 = assay: cells; format: cell-based; settings: 72 h
Experimental: as §1

HUVEC = assay: SRB cytotoxicity assay, HUVEC; format: cell-based; settings: Homo sapiens, non-malignant, endothelial, 72 h
Experimental: as §1

1A9 = assay: SRB cytotoxicity assay, 1A9 cells; format: cell-based; settings: Homo sapiens, 1A9, malignant, ovarian, 72 h
Experimental: as §1

MCF-7 = assay: SRB cytotoxicity assay, MCF-7 cells; format: cell-based; settings: Homo sapiens, MCF7, 72 h, MCF-7, malignant, breast
Experimental: as §1

HaCat = assay: SRB cytotoxicity assay, HaCat cells; format: cell-based; settings: Homo sapiens, immortalised, epidermal, 72 h
Experimental: as §1

[2] = tested on: all cell lines and cells tested; assay: SRB cytotoxicity assay, all cells of Table 3; format: cell-based
Experimental: as §1

CHO = assay: SRB cytotoxicity assay, CHO cells; format: cell-based; settings: Cricetulus griseus, immortalised, ovarian, 72 h
Experimental: as §1

IGROV-1 = assay: SRB cytotoxicity assay, IGROV-1 cells; format: cell-based; settings: Homo sapiens, IGROV-1, malignant, ovarian, 72 h
Experimental: as §1

HOSE [3] = tested on: HOSE
Experimental: as §2, §3, §4, §5, §6, §7

CFPAC-1 = assay: SRB cytotoxicity assay, CFPAC-1 cells; settings: CFPAC-1 cells, 72 h
Experimental: as §8, §9, §7

[4] = A2780 cells, concentrations as stated at the place or in the figure

## CN(C)c1ccc(O)c2c1C[C@H]1C[C@H]3[C@H](N(C)C)C(O)=C(C(N)=O)C(=O)[C@@]3(O)C(O)=C1C2=O [Mino, minocycline]
HOSE [1]; HOSE, MPL 5.0 μM + Mino (5 μM), 72 h
  B) Double treatment with MPL: synergistic cytotoxicity, one symbol per experiment: ✓✓✓
OVCAR-3; OVCAR-3, MPL 5.0 μM + Mino (5 μM), 72 h
  B) Double treatment with MPL: synergistic cytotoxicity, one symbol per experiment: ✓✓✓
OVCAR-3; OVCAR-3, MPL 5.0 μM + Mino (10 μM), 72 h
  B) Double treatment with MPL: synergistic cytotoxicity, one symbol per experiment: ✓✓✓

## COc1cccc2c1C(=O)c1c(O)c3c(c(O)c1C2=O)C[C@@](O)(C(=O)CO)C[C@@H]3O[C@H]1C[C@H](N)[C@H](O)[C@H](C)O1 [Doxorubicin]
AsPC1
  Interaction of the drug with MPL (synergy), in words: do not display a synergistic interaction
PET
  Interaction of the drug with MPL (synergy), in words: synergistic interaction; also recorded: synergistic inhibition
LN-18
  Interaction of the drug with MPL (synergy), in words: synergistic interaction; also recorded: synergistic inhibition
A2780; A2780 cells, concentrations as stated in the figure
  Interaction of the drug with MPL (synergy), in words: synergy; also recorded: synergistic interaction; also recorded: synergistic inhibition
A2780; A2780 cells, FIG. 1
  doxorubicin concentration in the absence of MPL equivalent to doxorubicin (10 nM) in the presence of MPL (5 μM): 1000 nM
A2780; read-out: IC50 value, cell proliferation, A2780 cells, with addition of 5 μM MPL, approximate values, FIG. 1
  IC50: ~0.001 µM
A2780; read-out: IC50 value, cell proliferation, A2780 cells, without MPL, approximate values, FIG. 1
  IC50: ~0.5 µM
Hep3B
  Interaction of the drug with MPL (synergy), in words: synergistic cytotoxicity; also recorded: synergistically inhibits; also recorded: synergistically cytotoxic
YOU
  Interaction of the drug with MPL (synergy), in words: synergistic interaction; also recorded: synergistic inhibition
U87
  Interaction of the drug with MPL (synergy), in words: synergistic interaction; also recorded: synergistic inhibition
OVCAR-3; 72 h
  Interaction of the drug with MPL (synergy), in words: synergistic interaction; also recorded: synergistic inhibition; also recorded: synergistic cytotoxic effect
REN
  Interaction of the drug with MPL (synergy), in words: synergistic interaction; also recorded: synergistic inhibition

## Cn1c(=O)c2c(ncn2C)n(C)c1=O [caffeine]
OVCAR-3; 72 h
  Interaction of the drug with MPL (synergy), in words: no synergistic effect

## CC#C[C@]1(O)CC[C@H]2[C@@H]3CCC4=CC(=O)CCC4=C3[C@@H](c3ccc(N(C)C)cc3)C[C@@]21C [Mifepristone]
A2780; [4]
  Interaction of the drug with MPL (synergy), in words: significant combination synergistic effect

## O=c1[nH]cc(F)c(=O)[nH]1 [Fluorouracil]
OVCAR-3 and A2780
  effect of combination with MPL, in words: significant increase in the effect
C170
  Interaction of the drug(s) with MPL (synergy), in words: synergistic cytotoxicity

## C[C@](C#N)(COc1cc(C#N)ccc1C(F)(F)F)NC(=O)c1ccc(S(=O)(=O)C(F)(F)F)cc1 [MPL-SO2, monepantel sulphone]
SKOV-3
  IC50: 26 µM
HT-29; Homo sapiens, HT-29, malignant, colorectal, SRB
  IC50: 2.8 ± 0.7 µM
HUVEC
  IC50: 47 µM
LN-18; Homo sapiens, LN-18, malignant, glial, SRB
  IC50: 6.6 ± 0.7 µM
1A9
  IC50: 3.4 ± 0.1 µM
MCF-7
  IC50: 8 ± 0.7 µM
A2780; Homo sapiens, A2780, 72 h
  IC50: 4.2 ± 2.1 µM
HaCat
  IC50: 42.7 ± 8 µM
[2]
  cytotoxicity compared with MPL: generally comparable to the parent compound
CHO
  IC50: 73.7 ± 6.9 µM
OVCAR-3; Homo sapiens, OVCAR-3, 72 h
  IC50: 5.5 ± 1.3 µM
IGROV-1
  IC50: 4.4 ± 1.5 µM

## NCC(=O)O [glycine]
OVCAR-3 and A2780
  effect of combination with MPL, in words: no effect
OVCAR-3; 72 h
  Interaction of the drug with MPL (synergy), in words: no synergistic effect

## CN/C(=N/CCSCc1nc[nH]c1C)NC#N [Cimetidine]
A2780; [4]
  Interaction of the drug with MPL (synergy), in words: significant combination synergistic effect

## O=C1[O][Pt]2([NH][C@@H]3CCCC[C@H]3[NH]2)[O]C1=O [Oxaliplatin]
HOSE [1]; HOSE cells, MPL at 5 μM, 48 h, FIG. 24
  Interaction of the drug with MPL (synergy / additive cytotoxicity), in words: does not display a synergistic cytotoxicity
HOSE [3]
  Interaction of the drug with MPL (synergy / additive cytotoxicity), in words: does not exert any additive cytotoxic effect

## CC/C(=C(\c1ccccc1)c1ccc(OCCN(C)C)cc1)c1ccccc1 [Tamoxifen]
OVCAR-3 and A2780
  effect of combination with MPL, in words: significant increase in the effect

## NC(Cc1c[nH]cn1)C(=O)O (racemic) [DL-histidine]
OVCAR-3 and A2780
  effect of combination with MPL, in words: no effect
OVCAR-3; 72 h
  Interaction of the drug with MPL (synergy), in words: no synergistic effect

## Ivermectin
A2780; A2780 (ovarian)
  effect of the drug alone: inhibited
A2780; [4]
  Interaction of the drug with MPL (synergy), in words: synergistic effect

## COc1cc2c(c(OC)c1OC)-c1ccc(OC)c(=O)cc1[C@@H](NC(C)=O)CC2 [Colchicine]
A2780; [4]
  Interaction of the drug with MPL (synergy), in words: cytotoxic effect
A2780; A2780 cells, concentrations as stated at the place or in the figure, listed as colchicine
  Interaction of the drug with MPL (synergy), in words: synergistic effect; also recorded: synergistic cytotoxicity

## N.N.[Cl][Pt][Cl] [Cisplatin, cis-diamminedichloroplatinum(II)]
A2780; [4]
  Interaction of the drug with MPL (synergy), in words: some increase of effect
Hep3B
  Interaction of the drug with MPL (synergy), in words: No synergy was observed

## c1ccc([C@H]2CN3CCSC3=N2)cc1 [Levamisole]
A2780; [4]
  Interaction of the drug with MPL (synergy), in words: did not display a synergistic effect
A2780; A2780 cells, concentrations as stated at the place or in the figure, listed as levamisole
  Interaction of the drug with MPL (synergy), in words: does not display a synergistic cytotoxicity
A2780; A2780 cells, levamisole at higher concentrations
  synergistic cytotoxic effect with MPL, predicted: may exert a synergistic cytotoxic effect
OVCAR-3; OVCAR-3, 5 μM MPL + drug, 72 h, Table 7
  Synergistic cytotoxicity between MPL and combined drug: ✓^3
OVCAR-3; 72 h
  Interaction of the drug with MPL (synergy), in words: significant synergistic effect; also recorded: does so against OVCAR-3 cells

## CCCSc1ccc2nc(NC(=O)OC)[nH]c2c1 [A8Z, albendazole]
A2780; [4]
  Interaction of the drug with MPL (synergy), in words: good synergistic effect

## Nc1ccn([C@@H]2O[C@H](CO)[C@@H](O)C2(F)F)c(=O)n1 [Gemcitabine]
AsPC1
  Interaction of the drug with MPL (synergy), in words: strong synergistic interaction; also recorded: synergistically inhibits
PET
  Interaction of the drug with MPL (synergy), in words: do not display a synergistic interaction
HT-29; HT29 cells, MPL 5 μM, 5-FU 20 μM, gemcitabine 0.5 μM, oxaliplatin 1 μM, FIG. 27
  Interaction of the drug(s) with MPL (synergy), in words: synergistic cytotoxicity
HOSE [1]; 72 h
  Interaction of the drug with MPL (synergy), in words: do not display the same synergistic interaction
HOSE [1]; 72 h, listed as gemcitabine
  Interaction of the drug with MPL (synergy), in words: do not display a synergistic interaction; also recorded: without displaying a synergistic interaction
LN-18
  Interaction of the drug with MPL (synergy), in words: synergistic interaction; also recorded: synergistically inhibits
CFPAC-1; 5 μM MPL, FIG. 23
  Interaction of the drug with MPL (synergy), in words: synergistic interaction; also recorded: synergistically exerted a cytotoxic effect
CFPAC-1; 10 μM MPL, data not shown
  Interaction of the drug(s) with MPL (synergy), in words: synergistically exerted a cytotoxic effect
A2780; [4]
  Interaction of the drug with MPL (synergy), in words: strong synergistic interaction
A2780; A2780 cells, concentrations as stated at the place or in the figure, listed as gemcitabine
  Interaction of the drug with MPL (synergy), in words: synergistically inhibits
Hep3B
  Interaction of the drug with MPL (synergy), in words: No synergy was observed
YOU
  Interaction of the drug with MPL (synergy), in words: do not display a synergistic interaction
OVCAR-3 and A2780
  effect of combination with MPL, in words: notable increase in efficacy
C170
  Interaction of the drug(s) with MPL (synergy), in words: synergistic cytotoxicity
REN
  Interaction of the drug with MPL (synergy), in words: do not display a synergistic interaction

## N[C@@H](Cc1c[nH]cn1)C(=O)O [L-histidine]
OVCAR-3 and A2780
  effect of combination with MPL, in words: no effect
OVCAR-3; 72 h
  Interaction of the drug with MPL (synergy), in words: no synergistic effect
